The source of these data is patent publication US5959109A, “Compounds and methods for increasing endogenous levels of corticotropin-releasing factor” (Neurocrine Biosciences, Inc., priority 1996, dated 1999).

Read-outs that look alike come from different tables or passages of the source.

One experiment has as its target T1, human recombinant CRF-BP (Homo sapiens, UniProt P24387).
T1 construct: made in house
T1 sequence (P24387 25-322): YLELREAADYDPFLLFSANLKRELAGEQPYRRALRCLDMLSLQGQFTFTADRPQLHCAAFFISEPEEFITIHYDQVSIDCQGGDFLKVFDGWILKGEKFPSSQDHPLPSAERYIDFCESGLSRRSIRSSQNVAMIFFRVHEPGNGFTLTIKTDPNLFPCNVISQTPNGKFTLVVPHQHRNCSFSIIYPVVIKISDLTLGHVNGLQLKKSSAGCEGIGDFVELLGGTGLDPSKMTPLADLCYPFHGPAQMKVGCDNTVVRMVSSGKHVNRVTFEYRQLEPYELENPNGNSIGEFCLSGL
As to the kind of experiment: LIRMA: displacement of 125I-h/rCRF from CRF-BP, Ki. In kind it is binding. The method, then:
In LIRMA CRF-BP isolated from brain tissue, serum, or cells expressing a recombinant form, is added to wells of a 96-well plate, to small polypropylene microfuge tubes, or to glass borosilicate tubes in a binding buffer (0.02% NP-40 in 50 mM phosphate-buffered saline). ^125 I-h/rCRF (New England Nuclear) and the candidate ligand inhibitor at 10 μM are added and the reaction is incubated for 1 hour at room temperature. An appropriately diluted anti-CRF-BP antibody, such as a rabbit anti-hCRF-BP (Potter et al., Proc. Natl. Acad. Sci. USA 89:4192-4196, 1992) is added to each tube, and after further incubation, bound complexes are precipitated by the further addition of a goat anti-rabbit antibody. The precipitate containing ^125 I-CRF is collected by centrifugation and the amount of radioactivity in the pellet is determined by a gamma counter. If the candidate ligand inhibitor displaces CRF from CRF-BP, the pellets will contain less radioactivity in comparison to controls in which no candidate peptide is added. Maximum inhibition (i.e., 100%) of the binding of ^125 I-h/rCRF to the CRF-BP is defined by the amount of radioactivity left in the pellets after incubation with 10 μM of the CRF-BP peptide ligand h/rCRF (6-33). Thus, the binding potency of the candidate ligand inhibitor will be measured relative to the potency of the standard h/rCRF (6-33).
Thus, a ligand having a Ki of less than that of hCRF will bind more strongly to hCRF-BP than will hCRF itself, and a ligand having a higher value will have a relatively lower binding affinity.
The assay is performed in 600 μl polypropylene microfuge tubes or a 96-well plate. First, 50 μl of a 250 ng/ml of purified recombinant CRF-BP is added to 150 μl of PBS binding buffer (50 mM sodium phosphate, 0.15M NaCl, and 0.02% NP-40). Next, ^125 I-h/r CRF at a final concentration of 200 pM and 50 μl of a 10-100 μM concentration of the ligand inhibitor are added and incubated for 1 hour at room temperature. To the reaction, 50 μl of anti-CRF-BP antibody, 5144, diluted 1:1000 with assay buffer is added to each tube and allowed to bind for a further 1 hour at room temperature. The total volume in all tubes is adjusted to 300 μl with assay buffer. Bound complexes are precipitated by the addition of 200 μl of preprecipitated goat anti-rabbit (GAR) second antibody at 1:20 in 1% normal rabbit serum, 4% PEG, 50 mM sodium phosphate, 0.1% sodium azide, followed by incubation for 1 hour at room temperature. The antibody-bound ^125 I-CRF precipitate is then collected by centrifugation (3000×g) at 4° C. for 20 minutes in a Beckman GS-15R centrifuge. Using a Beckman Biomer 1000 robotic workstation, the tubes are aspirated and washed once with 600 μl of PBS plus 0.02% NP-40. Tubes containing the pellets are then transferred to 12×74 mm counting tubes and counted in a gamma counter.
Inhibitory binding affinity constant (Ki) values are determined using the method of Munson et al., Anal. Biochem. 107:220, 1980.
On the technique in general: Displacement assays read how much labelled ligand stays bound in the presence of the test substance.

In a further experiment the test system is human CRF-BP. To be noted: cited from earlier work.
Where [1] appears, read: read-out: inhibitory binding affinity constant (Ki).
[2] abbreviates: inhibitory binding affinity constant (Ki).

For `CCn1c(=O)c(C=Nc2nc3ccccc3[nH]2)c(O)n(CCc2ccccc2)c1=S` [Compound 58-1], the inhibitory constant (Ki) – broadly, the equilibrium dissociation constant of an inhibitor or competing ligand from its target – at human recombinant CRF-BP (setting [1]) was below 100 nM.

For the compound `CCCn1c(O)c(C=Nc2nnc(CC)s2)c(=O)n(CCC)c1=S` [Compound 150], the Ki on human recombinant CRF-BP (setting [2]) was below 100 nM. The same measure, in the same setting: under `CCn1c(O)c(C=Nc2nc3ccc(C)cc3s2)c(=O)n(CC)c1=S` [Compound 75] stands below 50 nM. Turning to `COc1cccc2sc(N=Cc3c(O)c4cc(Cl)ccc4oc3=O)nc12` [Compound 40], at human recombinant CRF-BP (setting [1]), the Ki was below 100 nM. The same measure, in the same setting: under `O=c1oc2ccc(Cl)cc2c(O)c1C=NC(=S)Nc1c(Cl)cc(Cl)cc1Cl` [Compound 7] stands below 50 nM.

As to `CCn1c(=O)c(C=Nc2nc3c(OC)cccc3s2)c(O)n(CCc2ccccc2)c1=S` [Compound 73-1], the Ki on human recombinant CRF-BP (setting [2]) is below 100 nM. The same measure, in the same setting: under `CCn1c(O)c(C=Nc2nc3ccc(Cl)cc3s2)c(=O)n(CC)c1=S` [Compound 74] stands below 100 nM; under `CCn1c(O)c(C=Nc2nc3cc(C)c(C)cc3[nH]2)c(=O)n(CC)c1=S` [Compound 85], below 50 nM.

With `O=c1oc2ccc(Cl)cc2c(O)c1C=NC(=S)Nc1ccccc1-c1ccccc1` [Compound 20], the Ki on human recombinant CRF-BP (setting [1]) is below 50 nM. Regarding `CCn1c(O)c(C=Nc2nc3c(C)cccc3s2)c(=O)n(CC)c1=S` [Compound 72], the inhibition constant Ki at human recombinant CRF-BP (setting [2]) is below 100 nM.

With `O=c1oc2c(Cl)cc(Cl)cc2c(O)c1C=NC(=S)Nc1ccc(Cl)cc1` [Compound 32], the inhibition constant Ki at human recombinant CRF-BP (setting [1]) was below 50 nM. On to `CCn1c(O)c(C=Nc2nc3cc([N+](=O)[O-])ccc3s2)c(=O)n(CC)c1=S` [Compound 82], for which, on human recombinant CRF-BP (setting [2]), the Ki is below 50 nM. Same read-out and setting: then `O=c1c(C=Nc2nc(N(Cc3ccccc3)c3ccccc3)ns2)c(O)n(Cc2ccccc2)c(=S)n1Cc1ccccc1` [Compound 132], with below 50 nM. Same read-out and setting: then `CCn1c(O)c(C=Nc2nc3cc(C)ccc3[nH]2)c(=O)n(CC)c1=S` [Compound 86], with below 50 nM. Regarding `O=c1oc2ccc(Cl)cc2c(O)c1C=NC(=S)Nc1ccc(C(F)(F)F)cc1` [Compound 6], the inhibition constant (Ki) at human recombinant CRF-BP (setting [1]) is below 50 nM. Still for that read-out and setting: then `O=c1oc2cc(Cl)ccc2c(O)c1C=Nc1nc2ccc(Cl)cc2s1` [Compound 45], with below 50 nM. With `CCn1c(=O)c(C=Nc2nc3ccc(OC)cc3s2)c(O)n(CCc2ccccc2)c1=S` [Compound 76-1], at human recombinant CRF-BP (setting [2]), the Ki is below 100 nM. Consider `CCCn1c(O)c(C=Nc2nc3c(s2)CCC3)c(=O)n(CCC)c1=S` [Compound 172], for which the Ki at human recombinant CRF-BP (setting [2]) was below 50 nM. For `O=c1c(C=Nc2nncs2)c(O)n(Cc2ccccc2)c(=S)n1Cc1ccccc1` [Compound 111], the inhibition constant Ki on human recombinant CRF-BP (setting [2]) is below 50 nM. For `CCn1c(O)c(C=NC(=S)Nc2c(Cl)cc(Cl)cc2Cl)c(=O)n(CC)c1=S` [Compound 49], at human recombinant CRF-BP (setting [2]), the inhibition constant (Ki) is below 100 nM. For the compound `CCn1c(O)c(C=Nc2nc3c(C(F)(F)F)cccc3s2)c(=O)n(CC)c1=S` [Compound 80], the Ki at human recombinant CRF-BP (setting [2]) is below 100 nM. Still for that read-out and setting: under `CCSc1nnc(N=Cc2c(O)n(Cc3ccccc3)c(=S)n(Cc3ccccc3)c2=O)s1` [Compound 115] stands below 100 nM. Turning to `O=c1oc2ccc(Cl)cc2c(O)c1C=NC(=S)Nc1ccc(C2CCCCC2)cc1` [Compound 10], the inhibitory constant (Ki) at human recombinant CRF-BP (setting [1]) was below 50 nM.

Take `CCn1c(O)c(C=Nc2nc3ccc(OC)cc3s2)c(=O)n(CC)c1=S` [Compound 76]: the inhibitory constant (Ki) at human recombinant CRF-BP (setting [2]) was below 50 nM.

On to `CCn1c(O)c(C=Nc2nc3ccccc3[nH]2)c(=O)n(CC)c1=S` [Compound 58], for which the Ki at human recombinant CRF-BP (setting [2]) was below 50 nM. Regarding “oCRF: the standard oCRF, which is arbitrarily considered as 1.0”, the “affinity for CRF-BP” value with human CRF-BP is given as “low affinity”. Turning to `O=c1c(C=Nc2nc3ccccc3[nH]2)c(O)n(CCc2cccs2)c(=S)n1CCc1cccs1` [Compound 97], the Ki at human recombinant CRF-BP (setting [2]) was below 50 nM.

As for `O=c1c(C=NC(=S)Nc2ccc(Cl)cc2)c(O)n(Cc2ccccc2)c(=S)n1Cc1ccccc1` [Compound 53], the Ki on human recombinant CRF-BP (setting [2]) was below 100 nM.

On to `O=c1oc2ccc(Cl)cc2c(O)c1C=Nc1nc2c(Cl)cccc2s1` [Compound 36], for which the inhibition constant (Ki) at human recombinant CRF-BP (setting [1]) is below 50 nM. In the case of `CCn1c(=O)c(C=Nc2nnc(C(F)(F)F)s2)c(O)n(CCc2ccccc2)c1=S` [Compound 104-1], the Ki on human recombinant CRF-BP (setting [2]) is below 100 nM.

As for `O=c1oc2ccc(Cl)cc2c(O)c1C=NC(=S)Nc1ccc(-c2ccccc2)cc1` [Compound 19], the Ki at human recombinant CRF-BP (setting [1]) was below 50 nM.

Consider `CCn1c(=O)c(C=Nc2ncc(C)s2)c(O)n(CCc2ccccc2)c1=S` [Compound 117-1], for which, at human recombinant CRF-BP (setting [2]), the inhibition constant Ki was below 100 nM. Still for that read-out and setting: then `CCn1c(=O)c(C=Nc2nncs2)c(O)n(CCc2ccccc2)c1=S` [Compound 110-1], with below 50 nM; and `O=c1c(C=Nc2nnc(C(F)(F)F)s2)c(O)n(Cc2ccccc2)c(=S)n1Cc1ccccc1` [Compound 105], with below 100 nM. On to `O=c1oc2ccc3ccccc3c2c(O)c1C=NC(=S)Nc1ccc(Cl)cc1` [Compound 29], for which the Ki on human recombinant CRF-BP (setting [1]) is below 100 nM. `CCn1c(O)c(C=Nc2nc3ccc([N+](=O)[O-])cc3s2)c(=O)n(CC)c1=S` [Compound 79]: at human recombinant CRF-BP (setting [2]), the Ki was below 100 nM.

In the case of `O=c1oc2cc(Cl)ccc2c(O)c1C=Nc1nc2c(Cl)cccc2s1` [Compound 44], the inhibition constant (Ki) at human recombinant CRF-BP (setting [1]) is below 50 nM. For `CCn1c(=O)c(C=Nc2nc3ccc(C)cc3s2)c(O)n(CCc2ccccc2)c1=S` [Compound 75-1], the Ki on human recombinant CRF-BP (setting [2]) is below 100 nM. For the compound `CCn1c(O)c(C=Nc2nc3c(OC)cccc3s2)c(=O)n(CC)c1=S` [Compound 73], the Ki on human recombinant CRF-BP (setting [2]) was below 50 nM. The same measure, in the same setting: then `CCCn1c(O)c(C=Nc2nc(N(Cc3ccccc3)c3ccccc3)ns2)c(=O)n(CCC)c1=S` [Compound 133], with below 50 nM. On the same count and under the same terms, then `CCn1c(=O)c(C=Nc2nc3c(Cl)cccc3s2)c(O)n(CCc2ccccc2)c1=S` [Compound 95-1], with below 100 nM; and `CCn1c(=O)c(C=Nc2nc3cc(C)c(C)cc3[nH]2)c(O)n(CCc2ccccc2)c1=S` [Compound 85-1], with below 50 nM. Same read-out and setting: under `CCCn1c(O)c(C=Nc2nnc(C(F)(F)F)s2)c(=O)n(CCC)c1=S` [Compound 106] stands below 100 nM. For `O=c1c(C=Nc2ncc(Br)s2)c(O)n(Cc2ccccc2)c(=S)n1Cc1ccccc1` [Compound 140], the inhibition constant (Ki) on human recombinant CRF-BP (setting [2]) was below 100 nM.

As for `O=c1oc2ccc(Cl)cc2c(O)c1C=NC(=S)Nc1ccc(Cl)c(Cl)c1` [Compound 2], the inhibitory constant (Ki) at human recombinant CRF-BP (setting [1]) is below 50 nM. For the compound `CCn1c(=O)c(C=Nc2nc(N(Cc3ccccc3)c3ccccc3)ns2)c(O)n(CCc2ccccc2)c1=S` [Compound 131-1], at human recombinant CRF-BP (setting [2]), the inhibition constant Ki is below 50 nM. Still for that read-out and setting: then `CCn1c(O)c(C=Nc2nnc(C(F)(F)F)s2)c(=O)n(CC)c1=S` [Compound 104], with below 100 nM. The same measure, in the same setting: under `Cc1cnc(N=Cc2c(O)n(Cc3ccccc3)c(=S)n(Cc3ccccc3)c2=O)s1` [Compound 118] stands below 50 nM.

Take sauvagine: in the experiment with human CRF-BP, the “affinity for CRF-BP” value is “bind CRF-BP with high affinity”. Regarding `CCCn1c(O)c(C=Nc2nnc(SCC)s2)c(=O)n(CCC)c1=S` [Compound 116], on human recombinant CRF-BP (setting [2]), the Ki was below 100 nM. The same measure, in the same setting: under `CCCn1c(O)c(C=NC(=S)Nc2ccc(Cl)cc2)c(=O)n(CCC)c1=S` [Compound 54] stands below 100 nM; under `Cc1cnc(N=Cc2c(O)n(Cc3cccs3)c(=S)n(Cc3cccs3)c2=O)s1` [Compound 157], below 50 nM. For the compound `O=c1oc2c(Cl)cccc2c(O)c1C=NC(=S)Nc1ccc(Cl)cc1` [Compound 31], at human recombinant CRF-BP (setting [1]), the inhibition constant Ki is below 50 nM. For `CCCCCCCCCCCCCCCCSc1nnc(N=Cc2c(O)n(Cc3ccccc3)c(=S)n(Cc3ccccc3)c2=O)s1` [Compound 121], the Ki at human recombinant CRF-BP (setting [2]) is below 50 nM. The same measure, in the same setting: then `CCCn1c(O)c(C=Nc2nnc(C)s2)c(=O)n(CCC)c1=S` [Compound 103], with below 100 nM. For the compound `O=c1oc2ccc(Cl)cc2c(O)c1C=NC(=S)Nc1ccc(Cl)cc1` [Compound 1, 3-(p-chlorophenyl)thioureidomethylene-4-oxo-6-chloro-coumarin], the Ki at human recombinant CRF-BP (setting [1]) is below 50 nM.
